# Results published in BindingDB's records for doi:10.1021/jm990281p (Parke-Davis Pharmaceutical Research, 2000).
# Legend:
# [1] = molecular target: T1, Dimer of Gag-Pol polyprotein [489-587] (Human immunodeficiency virus 1, UniProt P12497); assay: Protease Inhibition Assay
# T1 construct: 489-587
# Method: (§1) Sensitivity of HIV-1 protease activity to protease inhibitors was determined by a peptide substrate cleavage assay. Protease products were analyzed on a reverse-phase high-pressure liquid chromatograph.
# [2] = molecular target: T2, Gag-Pol polyprotein [489-587] (Human immunodeficiency virus 1, UniProt P04585)
# T2 construct: 489-587
# [3] = molecular target: T2, Gag-Pol polyprotein [489-587]; assay: Protease Inhibition Assay
# Method: as §1
SMILES,"Ki ([1]; pH 6.2, 37 °C) [nM]",Ki [2] [nM],Ki [1] [nM],"IC50 ([1]; pH 6.2, 37 °C) [nM]",IC50 [3] [nM]
Cc1cc(SC2C(=O)CC(CCc3ccc(O)cc3)(C(C)C)OC2=O)c(C(C)(C)C)cc1NS(=O)(=O)c1cccc(C#N)c1 (stereo not given),0.21,0.21,–,–,–
Cc1cc(SC2C(=O)CC(CCc3ccccc3)(C(C)C)OC2=O)c(C(C)(C)C)cc1NS(C)(=O)=O (stereo not given),0.83,0.83,–,–,–
Cc1cc(SC2C(=O)CC(CCc3ccccc3)(C(C)C)OC2=O)c(C(C)(C)C)cc1O (stereo not given),–,1.1,–,–,–
Cc1cc(SC2C(=O)CC(CCc3ccccc3)(C(C)C)OC2=O)c(C(C)(C)C)cc1OS(=O)(=O)c1ccc(C#N)cc1 (stereo not given),–,0.7,0.7,–,–
"Cc1cc(SC2C(=O)C[C@@](CCc3ccc(O)cc3)(C(C)C)OC2=O)c(C(C)(C)C)cc1N (stereo partly drawn) [(6S)-3-[(4-amino-2-tert-butyl-5-methylphenyl)sulfanyl]-4-hydroxy-6-[2-(4-hydroxyphenyl)ethyl]-6-(propan-2-yl)-5,6-dihydro-2H-pyran-2-one]",–,13,0.07,–,–
"Cc1cc(SC2C(=O)CC(CCc3ccccc3)(C(C)C)OC2=O)c(C(C)(C)C)cc1NS(=O)(=O)c1cccc(C#N)c1 (stereo not given) [N-(5-tert-butyl-4-{[4-hydroxy-2-oxo-6-(2-phenylethyl)-6-(propan-2-yl)-5,6-dihydro-2H-pyran-3-yl]sulfanyl}-2-methylphenyl)-3-cyanobenzene-1-sulfonamide]",1.4,1.4,–,–,–
"Cc1cc(SC2C(=O)CC(CCc3ccc(O)cc3)(C(C)C)OC2=O)c(C(C)(C)C)cc1NS(=O)(=O)c1cccs1 (stereo not given) [N-[5-tert-butyl-4-({4-hydroxy-6-[2-(4-hydroxyphenyl)ethyl]-2-oxo-6-(propan-2-yl)-5,6-dihydro-2H-pyran-3-yl}sulfanyl)-2-methylphenyl]thiophene-2-sulfonamide]",–,–,–,8.7,8.7
"Cc1cc(SC2C(=O)CC(C)(CCc3ccc(O)cc3)OC2=O)c(C(C)(C)C)cc1NS(=O)(=O)c1ccc(C(F)(F)F)cc1 (stereo not given) [N-[5-tert-butyl-4-({4-hydroxy-6-[2-(4-hydroxyphenyl)ethyl]-6-methyl-2-oxo-5,6-dihydro-2H-pyran-3-yl}sulfanyl)-2-methylphenyl]-4-(trifluoromethyl)benzene-1-sulfonamide]",–,–,–,12.3,12.3
"Cc1cc(SC2C(=O)CC(C)(CCc3ccc(O)cc3)OC2=O)c(C(C)(C)C)cc1NS(=O)(=O)c1ccc(Cl)cc1 (stereo not given) [N-[5-tert-butyl-4-({4-hydroxy-6-[2-(4-hydroxyphenyl)ethyl]-6-methyl-2-oxo-5,6-dihydro-2H-pyran-3-yl}sulfanyl)-2-methylphenyl]-4-chlorobenzene-1-sulfonamide]",–,–,–,3.5,3.5
"Cc1cc(SC2C(=O)CC(C)(CCc3ccc(O)cc3)OC2=O)c(C(C)(C)C)cc1NS(=O)(=O)c1ccc(F)cc1 (stereo not given) [N-[5-tert-butyl-4-({4-hydroxy-6-[2-(4-hydroxyphenyl)ethyl]-6-methyl-2-oxo-5,6-dihydro-2H-pyran-3-yl}sulfanyl)-2-methylphenyl]-4-fluorobenzene-1-sulfonamide]",–,–,–,3.7,3.7
"Cc1cc(SC2C(=O)CC(C)(CCc3ccc(O)cc3)OC2=O)c(C(C)(C)C)cc1NS(=O)(=O)c1ccccc1 (stereo not given) [N-[5-tert-butyl-4-({4-hydroxy-6-[2-(4-hydroxyphenyl)ethyl]-6-methyl-2-oxo-5,6-dihydro-2H-pyran-3-yl}sulfanyl)-2-methylphenyl]benzenesulfonamide]",–,–,–,1.5,1.5
"Cc1cc(SC2C(=O)CC(CCc3ccc(O)cc3)(C3CCCC3)OC2=O)c(C(C)(C)C)cc1NS(=O)(=O)c1ccccc1 (stereo not given) [N-[5-tert-butyl-4-({6-cyclopentyl-4-hydroxy-6-[2-(4-hydroxyphenyl)ethyl]-2-oxo-5,6-dihydro-2H-pyran-3-yl}sulfanyl)-2-methylphenyl]benzenesulfonamide]",–,–,–,8.6,8.6
"Cc1cc(SC2C(=O)CC(CCc3ccc(O)cc3)(C3CC3)OC2=O)c(C(C)(C)C)cc1NS(=O)(=O)c1ccccc1 (stereo not given) [N-[5-tert-butyl-4-({6-cyclopropyl-4-hydroxy-6-[2-(4-hydroxyphenyl)ethyl]-2-oxo-5,6-dihydro-2H-pyran-3-yl}sulfanyl)-2-methylphenyl]benzenesulfonamide]",–,–,–,3.6,3.6
